In patent EP0539209A1, “Benzo-isoquinoline derivatives and analogs and their use in therapeutics” (THE UPJOHN COMPANY, priority 1991, dated 1993):

What was measured:
5-HT1A receptor = target: T1, 5-HT1A receptor (Homo sapiens, UniProt P08908); test: CNS Receptor Binding Assay, 5-HT1A; conditions: PART I - TABLE I; test compounds at 1 microMolar concentration competing with radioligand; 100 = binds as well as standard 8-OH-DPAT
T1 sequence (P08908 1-422): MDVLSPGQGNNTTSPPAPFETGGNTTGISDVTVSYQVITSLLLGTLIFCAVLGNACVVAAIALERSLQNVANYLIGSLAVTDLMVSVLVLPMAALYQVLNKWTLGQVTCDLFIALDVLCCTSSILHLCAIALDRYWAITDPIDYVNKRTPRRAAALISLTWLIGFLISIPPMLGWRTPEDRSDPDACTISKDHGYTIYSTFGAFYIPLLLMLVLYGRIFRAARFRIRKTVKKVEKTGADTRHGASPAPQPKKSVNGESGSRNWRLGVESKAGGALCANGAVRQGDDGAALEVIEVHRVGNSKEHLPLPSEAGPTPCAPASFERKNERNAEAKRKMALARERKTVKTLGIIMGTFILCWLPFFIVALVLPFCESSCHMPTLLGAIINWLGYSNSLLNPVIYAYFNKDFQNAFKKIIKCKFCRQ
Text: (§1) CNS Receptor Binding Assay (PART I - TABLE I): The Central Nervous System Binding Assay measures the percent inhibibition from experiments employing test compounds at 1 microMolar concentration competing with various radioligands for binding to whole brain membranes, membranes prepared from specific brain structures, or membranes prepared from cell lines expressing cloned receptors. When percent inhibition is equal to 100 the test compound binds as well as the standard compound. The standard compound for the 5-HT1A receptor is 8-OH-DPAT. The standard compound for the dopamine D1 receptor is SCH 23390.

dopamine D1 receptor = dopamine D1 receptor (Homo sapiens, UniProt P21728); test: CNS Receptor Binding Assay, dopamine D1; conditions: PART I - TABLE I; test compounds at 1 microMolar concentration; standard SCH 23390
Chain of dopamine D1 receptor (P21728 whole entry, species assumed): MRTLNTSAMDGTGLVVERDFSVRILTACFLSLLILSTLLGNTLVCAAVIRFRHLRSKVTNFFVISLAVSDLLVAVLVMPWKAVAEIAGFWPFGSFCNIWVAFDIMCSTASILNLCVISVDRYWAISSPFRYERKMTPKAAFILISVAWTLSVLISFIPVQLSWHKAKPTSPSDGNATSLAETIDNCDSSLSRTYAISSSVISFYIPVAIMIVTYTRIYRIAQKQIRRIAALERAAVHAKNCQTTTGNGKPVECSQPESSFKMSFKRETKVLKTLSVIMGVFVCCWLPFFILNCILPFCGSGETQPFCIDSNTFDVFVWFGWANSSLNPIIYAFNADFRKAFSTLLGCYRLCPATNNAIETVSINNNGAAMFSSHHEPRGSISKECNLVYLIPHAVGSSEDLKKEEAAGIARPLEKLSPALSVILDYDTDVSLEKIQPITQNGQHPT
Text: as §1
as §1, with “(PART II” for “(PART I”, “percent inhibition” for “percent inhibibition”, “the” for “the 5-HT1A receptor is 8-OH-DPAT. The standard compound for the”

Dopamine - D2 = Dopamine - D2 (Homo sapiens, UniProt P14416); test: CNS Receptor Binding Assay, dopamine D2; conditions: PART I - TABLE I; test compounds at 1 microMolar concentration
Chain of Dopamine - D2 (P14416 whole entry): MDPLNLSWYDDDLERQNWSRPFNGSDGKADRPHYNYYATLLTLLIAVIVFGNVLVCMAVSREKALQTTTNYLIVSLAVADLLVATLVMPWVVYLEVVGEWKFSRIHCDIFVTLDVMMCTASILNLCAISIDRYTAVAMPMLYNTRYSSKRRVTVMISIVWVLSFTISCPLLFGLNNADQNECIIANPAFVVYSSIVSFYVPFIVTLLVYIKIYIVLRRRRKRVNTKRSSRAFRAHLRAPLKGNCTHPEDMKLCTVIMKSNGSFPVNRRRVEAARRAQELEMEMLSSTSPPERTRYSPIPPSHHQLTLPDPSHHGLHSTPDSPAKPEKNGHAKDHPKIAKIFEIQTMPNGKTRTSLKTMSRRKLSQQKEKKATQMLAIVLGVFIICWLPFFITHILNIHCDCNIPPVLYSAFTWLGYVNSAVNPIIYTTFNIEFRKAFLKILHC
Text: as §1
as §1, with “(PART II” for “(PART I”, “percent inhibition” for “percent inhibibition”, “the” for “the 5-HT1A receptor is 8-OH-DPAT. The standard compound for the”

5-HT1A % inhibition (5-HT1A receptor) | Dopamine - D1 % inhibition (dopamine D1 receptor) | Dopamine - D2 % inhibition (Dopamine - D2) | inhibition at 1 µM (5-HT1A receptor) | inhibition at 1 µM (Dopamine - D2) | inhibition at 1 µM (dopamine D1 receptor) | Structure (SMILES)
17% | 11% | 22% | – | – | – | CCCN1CCC2Cc3c(C#N)cccc3C2CC1 (single isomer, unassigned) [compound 7]
– | – | – | 15% | 35% | 7% | CCCN1CCC2Cc3c(C#N)cccc3C2CC1 (single isomer, unassigned) [compound 8]

The remaining lines, values behind:

Structure (SMILES) | 5-HT1A % inhibition (5-HT1A receptor) | Dopamine - D1 % inhibition (dopamine D1 receptor) | Dopamine - D2 % inhibition (Dopamine - D2) | inhibition at 1 µM (5-HT1A receptor) | inhibition at 1 µM (Dopamine - D2) | inhibition at 1 µM (dopamine D1 receptor)
CCCN1CCC2Cc3cccc(C(N)=O)c3C2CC1 (single isomer, unassigned) [compound 3] | 93% | 13% | 45% | – | – | –
CCCN1CCC2Cc3cccc(C(N)=O)c3C2CC1 (single isomer, unassigned) [compound 4] | 21% | 0% | 2% | – | – | –
CCCN1CCC2Cc3c(C(N)=O)cccc3C2CC1 (single isomer, unassigned) [compound 5] | – | 10% | – | 24% | 24% | –
CCCN1CCC2Cc3c(C(N)=O)cccc3C2CC1 (single isomer, unassigned) [compound 6] | 18% | 50% | 31% | – | – | –
CCCN1CCC2Cc3c(Cl)ccc(OC)c3C2CC1 (stereo not drawn) [compound 1] | – | – | – | 99% | 74% | 57%
